The subject of data set [1] is Green Peach Aphid (Myzus persicae). As to conditions: in vivo. An excerpt: II.2 Activity Against Green Peach Aphid (Myzus persicae)
The active compounds were formulated in 50:50 acetone:water and 100 ppm Kinetic™ surfactant.
Pepper plants in the 2nd leaf-pair stage (variety California Wonder) were infested with approximately 40 laboratory-reared aphids by placing infested leaf sections on top of the test plants. The leaf sections were removed after 24 hr. The leaves of the intact plants were dipped into gradient solutions of the test compound and allowed to dry. Test plants were maintained under fluorescent light (24 hour photoperiod) at about 25° C. and 20-40% relative humidity. Aphid mortality on the treated plants, relative to mortality on check plants, was determined after 5 days.

Data set [2] has as its system Brown Planthopper (nilaparvata lugens). Put plainly: Activity against brown planthopper (II.7). The class given is in vivo. Conditions: for mortality [%] at 300 ppm: brown plant hopper (II.7). The protocol: II.7 Activity Against Brown Planthopper (nilaparvata lugens)
The active compounds were formulated as a 20:80 acetone:water solution. Surfactant (Alkamuls EL 620) was added at the rate of 0.1% (vol/vol).
Potted rice plants of 3-4 weeks of age are sprayed with 10 ml of the test solution using air driven hand atomizer (Devillbis atomizer) at 1.7 bar. The treated plants are allowed to dry for about 1 hour and covered with Mylar cages. The plants are inoculated with 10 adults of the specie (5 male and 5 females) and kept at 25-27° C. and 50-60% humidity for 3 days. Mortality is assed after 24, 48 and 72 hours after treatment. Dead insects are usually found in the water surface. Each treatment is replicated once.

For data set [3], the system named is Diamond Back Moth (plutella xylostella). Conditions: in vivo. The procedure:
II.5 Activity Against Diamond Back Moth (plutella xylostella)
The active compounds were formulated in 50:50 acetone:water and 0.1% (vol/vol) Alkamuls EL 620 surfactant. A 6 cm leaf disk of cabbage leaves was dipped in the test solution for 3 seconds and allowed to air dry in a Petri plate lined with moist filter paper. The leaf disk was inoculated with 10 third instar larvae and kept at 25-27° C. and 50-60% humidity for 3 days. Mortality was assessed after 72 h of treatment.

The test system of data set [4] is Flea Beetle (Phylotretta striolata). The experiment in a line: Activity against flea beetle (II.19). The class given is in vivo. As to conditions: at 300 ppm; after 3 days; leaf disc dip. The procedure:
II.19 Activity Against Flea Beetle (Phylotretta striolata)
Flea bettle (Phylotretta striolata) adults used for bioassay are obtained from a colony maintained continuously under laboratory conditions. For testing purposes, the test compound is diluted to a concentration of 300 ppm (wt compound: vol diluent) in a 1:1 mixture of acetone:water, plus 0.1% EL 620 surfactant.
Activity of each compound is evaluated using a […]. Glass petri dishes (60×15 mm) lined with moist filter paper serves as test arenas. All leaf discs are dipped into treatment solution for approximately 3 seconds and allowed to dry for 2 hours. Each treated leaf disc is placed into individual petri dishes and inoculated with 10 adult beetles. Petri dishes are then covered with lids. All test arenas are held under continuous light and a temperature of about 28° C. for duration of the assay. After 3 days, percent mortality is observed.

In data set [5] the test system is Rice Green Leaf Hoppers (Nephotettix virescens). Put plainly: Activity against rice green leaf hoppers (II.20). The data set is classed as in vivo. Conditions: at 300 ppm; after 72 hours; rice foliar spray. The procedure: II.20 Activity Against Rice Green Leaf Hoppers (Nephotettix virescens)
Leaf hopper adults used for bioassay are obtained from a colony maintained continuously under laboratory conditions. For testing purposes, the test compound is diluted in 300 ppm (wt compound:vol diluent) in a 1:1 mixture of acetone:water, plus 0.1% EL 620 surfactant.
Hopper activity is evaluated using the foliar spray technique. Potted rice plants (2-3 week old, Variety TN-1) are cleaned and dried prior to application. All plants are treated inside the fume hood using DeVilbiss atomizer at 25 psi with a spray volume of 5 ml/plant. To ensure uniform spray distribution, plants were placed in a rotating flat form inside the fume hood. Treated plants are then placed inside the holding room and allowed to dry for 2 hours. Each plant are caged using Mylar cages (4 inches diameter×19 inches in height) and inoculated with 10 adults hoppers. All test plants are held under continuous light and a temperature of about 28° C. for duration of the assay. Percent mortality is observed after 72 hours.

As to `O=S(=O)(NCc1ccnc2ccccc12)c1ccc(-c2ccc(OC(F)(F)F)cc2)c(F)c1` [Compound B14], in data set [1], the “mortality [%] at 100 ppm” value stood at 90% and the “mortality [%] at 300 ppm” value amounted to 90%.
Take `O=S(=O)(NCc1ccnc2ccccc12)c1ccc(-c2ccc(C(F)(F)F)cc2)c(C(F)(F)F)c1` [Compound B16]: the “mortality in comparison with untreated controls” value in data set [2] (at 300 ppm, rice plants sprayed, up to 72 hours) is reported as “at least 75%”. Further, the “mortality [%] at 300 ppm” value in data set [2] turned out to be 100%.
In the case of `O=S(=O)(NCc1ccnc2ccccc12)c1ccc(-c2ccc(C(F)(F)F)cc2)c(Cl)c1` [Compound B24], in data set [1], the “mortality [%] at 10 ppm” value came to 90%, the “mortality [%] at 100 ppm” value is 90% and the “mortality [%] at 300 ppm” value is reported as 100%. The “mortality [%] at 300 ppm” value in data set [3] is listed as 100%.
`O=S(=O)(NCc1ccnc2ccccc12)c1ccc(-c2ccc(C(F)(F)F)cc2Cl)cc1F` [Compound B85]: the “mortality in comparison with untreated controls” value in data set [4] and in data set [5] was “at least 75%” throughout.
Turning to `O=S(=O)(NCc1ccnc2ccccc12)c1ccc(-c2ccc(OC(F)(F)F)cc2)cc1` [Compound C1, reference compound], in data set [1], the “mortality [%] at 100 ppm” value was 0% and the “mortality [%] at 300 ppm” value was found to be 60%.
As to `O=S(=O)(NCc1ccnc2ccccc12)c1ccc(-c2ccc(C(F)(F)F)cc2)cc1` [Compound C2, reference compound], in data set [1], the “mortality [%] at 10 ppm” value is reported as 0%, the “mortality [%] at 100 ppm” value was 60% and the “mortality [%] at 300 ppm” value is reported as 100%. Moreover, the “mortality [%] at 300 ppm” value in data set [3] came to 0%. The “mortality [%] at 300 ppm” value in data set [2] came to 0%.

The values are drawn from patent US20090280982A1, “Quinolinylmethyl Compounds” (BASF SE, priority 2006, published 2009).
